In patent publication EP4806904A1, “POLYPEPTIDE AND USE THEREOF” (Sichuan Gooddoctor Panxi Pharmaceutical Co. Ltd, priority 2023, dated 2026):
Where a SMILES comes first, the peptide text is derived from it. Where no end group is shown, it is not given here. [ ]: non-standard residue; d: D form.

Experiments:
[1] = system: primary neural stem cells (NSCs); test: Differentiation of primary neural stem cells, βIII-tubulin fluorescence and Neurite Outgrowth Assay; assay type: cell-based, SD rats; settings: 100 µg/mL, 4 days; for neurite outgrowth (total neurite length, maximum neurite length, neurite terminals, neurite initiation points): Neurite Outgrowth Assay; for neurite outgrowth (total neurite length, maximum neurite length, neurite terminals, neurite initiation points) / mean fluorescence intensity of the neuronal marker protein βIII-tubulin: in words; for Number of neurite terminals / Total neurite length / Average fluorescence intensity / Longest neurite length / Neurite initiation points (branches): significance vs blank control group; for mean fluorescence intensity of the neuronal marker protein βIII-tubulin: vs blank control group; for Average fluorescence intensity: βIII-tubulin
Procedure: This part of the experiment requires feeding male and female rats in advance, then extracting hippocampal neural stem cells from newborn SD rats within 24 h of birth, culturing them to P3 for identification, and then using them for experiments. • (1) Extraction and culture of primary neural stem cells (NSCs) • (2) NSCs that have been passaged to P3 and have good viability were seeded in differentiation medium (2% FBS+DMEM/F12 1:1 medium) in 48-well plates with a cell concentration of 5×10^4 cells/mL per well. After overnight culture for cell adherence, the cells were treated with drugs; • (3) Drug treatment was applied. The final concentration of the polypeptide of the invention was 100 µg/mL. Meanwhile, nerve growth factor (NGF, 50 ng/mL) was set as the positive control, and the cells were cultured in the incubator for another 4 days; • (4) Immunofluorescence staining (primary antibody βIII-tubulin) was performed after 4 days of treatment. The average fluorescence intensity of βIII-tubulin was analyzed and the Neurite Outgrowth Assay was performed using a high-content cell imaging analysis system.

[2] = system: Brain microvascular endothelial cells (BMECs) and brain microvascular smooth muscle cells (BMVSMCs); test: In vitro angiogenesis assay, BMEC/BMVSMC co-culture on matrigel; assay type: cell-based, mouse; settings: 0.1 mg/L, 48 h
Procedure: First, mouse brain microvascular pellets were obtained by differential centrifugation. Brain microvascular endothelial cells (BMECs) and brain microvascular smooth muscle cells (BMVSMCs) were isolated by digestion with collagenase II, respectively, and cultured in a cell incubator with 5% CO2 at 37°C . Cells at passages 3-6 in good growth condition and logarithmic growth phase were selected for the in vitro angiogenesis assay.
One night before the experiment, the high-concentration matrigel was transferred from a -20°C or -80°C refrigerator to a 4°C refrigerator and allowed to thaw slowly overnight in the 4°C refrigerator. Pipette tips required for the formal experiment were sterilized in advance and pre-cooled in a 4°C refrigerator for subsequent use.
On the day of the experiment, the matrigel was added to a 96-well plate 1 h in advance and placed in a 37°C cell incubator until it solidified. Subsequently, the cells were washed 2 times with 2 mL of PBS buffer, followed by digestion with 0.25% trypsin to obtain EC and VSMC pellets, respectively, and cell counting was performed. A uniform cell suspension containing 5×10^3 BMVSMCs and 1×10^3 BMECs per well was then seeded into the 96-well plate pre-coated with the matrigel, and cultured in a 37°C, 5% CO2 cell incubator for 3 days.
During the culture period, tube formation was observed daily. The medium was changed on day 4, followed by treatment with the polypeptide of the invention at 0.1 mg/L or VEGFA at 10/15/20 ng/L for 48 h, respectively.
On day 5, the cell nuclei and live cells were labeled with Hoechst 33342 and Calcein AM, respectively. High-content brightfield and fluorescence imaging were then performed using a high-content screening system. Finally, angiogenesis in each treatment group was analyzed using the Angiogenesis Analyzer plugin for ImageJ, and statistical analysis was carried out with GraphPad Prism 10.

[3] = system: neural stem cell line C17.2; test: Proliferation of neural stem cell line C17.2, BrdU, high-content imaging; assay type: cell-based; settings: 100 µg/mL, 48 h; for Proliferation-promoting results: percentage of BrdU-positive cells, significance vs blank control group; for number of BrdU positive cells: vs blank control group, in words
Procedure: • (1) C17.2 cells were seeded in 96-well plates at a concentration of 1500 cells/100 µL/well. After overnight culture for cell adherence, the cells were treated with drugs; • (2) Drug treatment was applied. The final concentration of the polypeptide of the invention was 100 µg/mL. Meanwhile, butylphthalide (NBP, 5 µM) was set as the positive control. The cells were cultured in the incubator for another 48 h; • (3) BrdU was added at 44 h of treatment to a final concentration of 10 µM. Immunofluorescence staining was performed 4 h later, and the percentage of BrdU-positive cells was statistically analyzed using a high-content cell imaging analysis system.

[4] = significance vs blank control group

Row | Compound | neurite outgrowth (total neurite length, maximum neurite length, neurite terminals, neurite initiation points) [1] | Number of neurite terminals [1] | Total neurite length [1] | mean fluorescence intensity of the neuronal marker protein βIII-tubulin [1] | Cell count [2, 4] | cell proliferation ([2]; vs normal group, in words) | Proliferation-promoting results [3] | number of BrdU positive cells [3] | Branch length [2, 4] | Number of intersections [2, 4] | angiogenesis-promoting effects ([2]; vs normal group, in words) | Average fluorescence intensity [1] | Longest neurite length [1] | Neurite initiation points (branches) [1] | Branch length ([2]; vs normal group, in words) | number of junctions ([2]; vs normal group, in words)
1 | H-ALPAPGTL-NH2 [Compound 10, H-Ala-Leu-Pro-Ala-Pro-Gly-Thr-Leu-NH2] | tendency to promote neurite outgrowth | ** (**p < 0.01) | * (*p < 0.05) | tendency to enhance | * (*p < 0.05) | only promoted cell proliferation | ** (**p < 0.01) | significant increase |  |  |  |  |  |  |  | 
2 | CC(C)C[C@H](NC(=O)[C@H](C)N)C(=O)N1CCC[C@H]1C(=O)N[C@@H](C)C(=O)N1CCC[C@H]1C(=O)NCC(=O)N[C@H](C(=O)N[C@H](CC(C)C)C(=O)O)[C@@H](C)O [Compound 8, H-Ala-Leu-Pro-Ala-Pro-Gly-Thr-D-Leu-OH] (H-ALPAPGT[dL]-OH) |  |  |  |  |  |  | * (*p < 0.05) |  | ** (**p < 0.01) | * (*p < 0.05) | exhibited angiogenesis-promoting effects |  |  |  |  | 
3 | H-LPAPGT-OH [Compound 32, H-Leu-Pro-Ala-Pro-Gly-Thr-OH] |  |  |  |  | ** (**p < 0.01) |  | * (*p < 0.05) | significant increase | * (*p < 0.05) |  |  |  |  |  |  | 
4 | H-ALPAPGAL-OH [Compound 18, H-Ala-Leu-Pro-Ala-Pro-Gly-Ala-Leu-OH] |  |  |  |  | * (*p < 0.05) |  | *** (***p < 0.001) |  | * (*p < 0.05) | * (*p < 0.05) | exhibited angiogenesis-promoting effects |  |  |  |  | 
5 | ALPAPG [Compound 40, H-Ala-Leu-Pro-Ala-Pro-Gly-Oh] |  |  |  | significant increase | * (*p < 0.05) | only promoted cell proliferation | * (*p < 0.05) | significant increase |  |  |  | * (*p < 0.05) |  |  |  | 
6 | CC(C)C[C@H](NC(=O)[C@H](NC(=O)CNC(=O)[C@@H]1CCCN1C(=O)[C@H](C)NC(=O)[C@@H]1CCCN1C(=O)[C@H](CC(C)C)NC(=O)[C@H](C)N)[C@H](C)O)C(=O)O [Compound 7, H-Ala-Leu-Pro-Ala-Pro-Gly-D-Thr-Leu-OH] (H-ALPAPG[dT]L-OH) | tendency to promote neurite outgrowth |  | * (*p < 0.05) |  | ** (**p < 0.01) | only promoted cell proliferation | ** (**p < 0.01) |  |  |  |  |  | * (*p < 0.05) |  |  | 
7 | H-LAPAPGTI-OH [Compound 20, H-Leu-Ala-Pro-Ala-Pro-Gly-Thr-Ile-OH] | tendency to promote neurite outgrowth |  |  | tendency to enhance |  |  | * (*p < 0.05) |  |  | * (*p < 0.05) |  |  | * (*p < 0.05) | * (*p < 0.05) | no significant effects | promoting effects
8 | C[C@H](NC(=O)[C@@H]1CCCN1)C(=O)N1CCC[C@H]1C(=O)NCC(=O)O [Compound 36, H-Pro-Ala-Pro-Gly-OH] (H-PAPG-OH) | tendency to promote neurite outgrowth | * (*p < 0.05) | * (*p < 0.05) |  | ** (**p < 0.01) |  | ** (**p < 0.01) | significant increase | ** (**p < 0.01) |  |  |  |  |  | promoting effects | no significant effects
9 | H-ALPAGGTL-OH [Compound 15, H-Ala-Leu-Pro-Ala-Gly-Gly-Thr-Leu-OH] | tendency to promote neurite outgrowth |  |  |  |  |  | * (*p < 0.05) |  |  | * (*p < 0.05) |  |  | * (*p < 0.05) |  | no significant effects | promoting effects
10 | H-AAPAPGTL-OH [Compound 16, H-Ala-Ala-Pro-Ala-Pro-Gly-Thr-Leu-OH] |  |  |  | significant increase |  |  | * (*p < 0.05) |  |  |  |  | * (*p < 0.05) |  |  |  | 
11 | CC(C)C[C@H](NC(=O)[C@@H](NC(=O)CNC(=O)[C@@H]1CCCN1C(=O)[C@@H](C)NC(=O)[C@@H]1CCCN1C(=O)[C@H](CC(C)C)NC(=O)[C@H](C)N)[C@@H](C)O)C(=O)O [Compound 5, H-Ala-Leu-Pro-D-Ala-Pro-Gly-Thr-Leu-OH] (H-ALP[dA]PGTL-OH) |  | * (*p < 0.05) | ** (**p < 0.01) |  | * (*p < 0.05) |  | ** (**p < 0.01) |  |  | * (*p < 0.05) |  |  | *** (***p < 0.001) | *** (***p < 0.001) | no significant effects | promoting effects
12 | CC(C)C[C@H](NC(=O)[C@@H](NC(=O)CNC(=O)[C@@H]1CCCN1)[C@@H](C)O)C(=O)O [Compound 28, H-Pro-Gly-Thr-Leu-OH] (H-PGTL-OH) | tendency to promote neurite outgrowth | * (*p < 0.05) | ** (**p < 0.01) |  |  |  | * (*p < 0.05) | significant increase |  |  |  |  |  |  |  | 
13 | C[C@H](N)C(=O)N1CCC[C@H]1C(=O)NCC(=O)N[C@H](C(=O)O)[C@@H](C)O [Compound 37, H-Ala-Pro-Gly-Thr-OH] (H-APGT-OH) |  |  |  |  |  |  | * (*p < 0.05) | significant increase |  |  |  |  |  |  |  | 
14 | H-LAPAPGTL-OH [Compound 19, H-Leu-Ala-Pro-Ala-Pro-Gly-Thr-Leu-OH] |  |  |  |  |  |  | ** (**p < 0.01) |  | * (*p < 0.05) | * (*p < 0.05) | exhibited angiogenesis-promoting effects |  |  |  |  | 
15 | CC(C)C[C@H](NC(=O)[C@@H](NC(=O)CNC(=O)[C@@H]1CCCN1C(=O)[C@H](C)NC(=O)[C@@H]1CCCN1C(=O)[C@H](CC(C)C)NC(=O)[C@@H](C)N)[C@@H](C)O)C(=O)O [Compound 2, H-D-Ala-Leu-Pro-Ala-Pro-Gly-Thr-Leu-OH] (H-[dA]LPAPGTL-OH) |  | ** (**p < 0.01) | ** (**p < 0.01) |  | * (*p < 0.05) |  |  |  | *** (***p < 0.001) | ** (**p < 0.01) | exhibited angiogenesis-promoting effects |  | ** (**p < 0.01) | * (*p < 0.05) |  | 
